What all share (assay): biochemical
The target of assay [1] is T1, MMP-2 (Homo sapiens, UniProt P08253).
T1 construct: made in house; provided by Dr. Gregory Goldberg, Washington University
T1 sequence (P08253 110-660): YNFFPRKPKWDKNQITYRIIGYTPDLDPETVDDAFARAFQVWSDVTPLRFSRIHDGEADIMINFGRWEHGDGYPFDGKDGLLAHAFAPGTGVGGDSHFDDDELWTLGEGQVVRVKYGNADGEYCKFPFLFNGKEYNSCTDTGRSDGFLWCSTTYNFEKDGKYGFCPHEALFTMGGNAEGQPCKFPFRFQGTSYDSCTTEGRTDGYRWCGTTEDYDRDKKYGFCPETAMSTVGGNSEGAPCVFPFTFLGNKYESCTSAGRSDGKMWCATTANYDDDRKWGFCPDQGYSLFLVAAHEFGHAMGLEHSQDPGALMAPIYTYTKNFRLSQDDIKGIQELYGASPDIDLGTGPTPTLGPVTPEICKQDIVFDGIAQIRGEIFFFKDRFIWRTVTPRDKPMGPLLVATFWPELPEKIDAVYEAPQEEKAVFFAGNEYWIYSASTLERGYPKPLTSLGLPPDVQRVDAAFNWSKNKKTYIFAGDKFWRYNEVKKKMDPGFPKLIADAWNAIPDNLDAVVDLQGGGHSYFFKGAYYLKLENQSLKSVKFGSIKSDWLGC
Particulars: recombinant human MMP-2, MCA peptide substrate 4 μM, pH 7.5, room temperature; read-out: MMP-2 IC50. The method, boiled down:
(§1)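 APMA- or trypsin-activated enzymes were preincubated with inhibitor for 5 min at room temperature, then the fluorogenic substrate MCA-Pro-Leu-Gly-Leu-Dpa-Ala-Arg-NH2 was added to a final 4 μM.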

Assay [2] concerns the target T2, MMP-1 (Homo sapiens, UniProt P03956).
T2 construct: made in house; host or cells: transfected HT-1080 cells (provided by Dr. Harold Welgus, Washington University)
T2 sequence (P03956 100-469): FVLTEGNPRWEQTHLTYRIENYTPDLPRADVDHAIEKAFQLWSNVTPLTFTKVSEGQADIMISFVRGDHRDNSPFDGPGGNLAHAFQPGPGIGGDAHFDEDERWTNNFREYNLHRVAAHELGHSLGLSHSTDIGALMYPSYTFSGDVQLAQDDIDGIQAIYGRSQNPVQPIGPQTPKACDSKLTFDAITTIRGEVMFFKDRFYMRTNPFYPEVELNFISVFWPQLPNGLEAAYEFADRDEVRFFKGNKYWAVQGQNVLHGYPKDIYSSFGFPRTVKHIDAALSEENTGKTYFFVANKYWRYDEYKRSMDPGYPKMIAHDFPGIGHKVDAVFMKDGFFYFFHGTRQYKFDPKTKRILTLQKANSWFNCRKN
Conditions: recombinant human MMP-1, MCA peptide substrate 4 μM, pH 7.5, room temperature; read-out: MMP-1 IC50. The method in brief:
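Substrate MCA-PLGL-Dpa-AR-NH2 at 4 μM final; pH 7.5 Tris/NaCl/CaCl2 buffer with 0.05% polyethyleneglycol lauryl ether, 1% DMSO, room temperature. MMP-1 was expressed in transfected HT-1080 cells and APMA-activated.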

Assay [3] concerns the target T3, MMP-13 (Homo sapiens, UniProt P45452).
T3 construct: made in house; host or cells: baculovirus / insect cells
Particulars: recombinant human MMP-13, MCA peptide substrate 4 μM, pH 7.5, room temperature; read-out: MMP-13 IC50. The method in brief:
as §1

Structures are written as SMILES.

As usually defined, the IC50 is the concentration needed to halve the response being measured. On to `C[C@@H]1C[C@H](C)CN(C(=O)C2CCN(c3ccc(S(=O)(=O)C4(C(=O)NO)CCN(C(=O)CCl)CC4)cc3)CC2)C1` [Example 276], for which the concentration for half-maximal inhibition (IC50) in assay [1] was above 10 µM; in assay [2] it was above 10 µM; in assay [3], 0.0373 µM.
Regarding `CCNCC(=O)N1CCC(C(=O)NO)(S(=O)(=O)c2ccc(N3CCC(C(=O)N4CC(C)CC(C)C4)CC3)cc2)CC1` (stereo not drawn) [Example 277], the IC50 in assay [1] is above 10 µM; in assay [2], above 10 µM; in assay [3], 0.07 µM.
For the compound `CC1CC(C)CN(C(=O)C2CCN(c3ccc(S(=O)(=O)C4(C(=O)NO)CCN(C(=O)CNCc5cccnc5)CC4)cc3)CC2)C1` (stereo not drawn) [Example 278], the values for the IC50 in assay [1], in assay [2] and in assay [3] were above 10 µM, above 10 µM and 0.0193 µM, respectively.
Regarding `CC1CC(C)CN(C(=O)C2CCN(c3ccc(S(=O)(=O)C4(C(=O)NO)CCN(C(=O)Cn5ccnc5)CC4)cc3)CC2)C1` (stereo not drawn) [Example 279], the IC50 is 7.3 µM in assay [1], above 10 µM in assay [2] and 0.02 µM in assay [3].
Consider `CC1CC(C)CN(C(=O)C2CCN(c3ccc(S(=O)(=O)C4(C(=O)NO)CCN(C(=O)CNCCCO)CC4)cc3)CC2)C1` (stereo not drawn) [Example 280], for which the half-inhibitory concentration (IC50) in assay [1] is above 10 µM; in assay [2] it was above 10 µM; in assay [3], 0.09 µM.
`CC1CC(C)CN(C(=O)C2CCN(c3ccc(S(=O)(=O)C4(C(=O)NO)CCN(C(=O)CNCCc5c[nH]cn5)CC4)cc3)CC2)C1` (stereo not drawn) [Example 281]: the half-maximal inhibitory concentration (IC50) in assay [1] was above 10 µM; in assay [2], above 10 µM; in assay [3], 0.105 µM.
Consider `CC1CC(C)CN(C(=O)C2CCN(c3ccc(S(=O)(=O)C4(C(=O)NO)CCN(C(=O)CNCc5cccs5)CC4)cc3)CC2)C1` (stereo not drawn) [Example 282], for which the results for the 50% inhibitory concentration (IC50) in assay [1], in assay [2] and in assay [3] were 9 µM, above 10 µM and 0.0148 µM, respectively.
The corresponding values for `CC1CC(C)CN(C(=O)C2CCN(c3ccc(S(=O)(=O)C4(C(=O)NO)CCN(C(=O)CN5CCOCC5)CC4)cc3)CC2)C1` (stereo not drawn) [Example 283] are above 10 µM, above 10 µM and 0.0138 µM.
For `CC1CC(C)CN(C(=O)C2CCN(c3ccc(S(=O)(=O)C4(C(=O)NO)CCN(C(=O)CNCc5ccccn5)CC4)cc3)CC2)C1` (stereo not drawn) [Example 284] the same measures were above 10 µM, above 10 µM and 0.13 µM.
The corresponding values for `CC1CC(C)CN(C(=O)C2CCN(c3ccc(S(=O)(=O)C4(C(=O)NO)CCN(C(=O)CNCc5ccncc5)CC4)cc3)CC2)C1` (stereo not drawn) [Example 285] are 9 µM, above 10 µM and 0.0193 µM.
For the compound `CC1CC(C)CN(C(=O)C2CCN(c3ccc(S(=O)(=O)C4(C(=O)NO)CCN(C(=O)CNCCO)CC4)cc3)CC2)C1` (stereo not drawn) [Example 286], the IC50 in assay [1] was above 10 µM; in assay [2] it was above 10 µM; in assay [3] it was 0.06 µM.
Turning to `CC1CC(C)CN(C(=O)C2CCN(c3ccc(S(=O)(=O)C4(C(=O)NO)CCN(C(=O)CN(C)CCN(C)C)CC4)cc3)CC2)C1` (stereo not drawn) [Example 287], the IC50 in assay [1] was above 10 µM; in assay [2], above 10 µM; in assay [3], 0.15 µM.
Consider `CC1CC(C)CN(C(=O)C2CCN(c3ccc(S(=O)(=O)C4(C(=O)NO)CCN(C(=O)CN5CCN(C)CC5)CC4)cc3)CC2)C1` (stereo not drawn) [Example 288], for which the IC50 was above 10 µM in assay [1], above 10 µM in assay [2] and 0.035 µM in assay [3].
As to `CC1CC(C)CN(C(=O)C2CCN(c3ccc(S(=O)(=O)C4(C(=O)NO)CCN(C(=O)CNCCN(C)C)CC4)cc3)CC2)C1` (stereo not drawn) [Example 289], the half-maximal inhibitory concentration (IC50) was above 10 µM in assay [1], above 10 µM in assay [2] and 0.05 µM in assay [3].
Consider `CC1CC(C)CN(C(=O)C2CCN(c3ccc(S(=O)(=O)C4(C(=O)NO)CCN(C(=O)CN5CCNCC5)CC4)cc3)CC2)C1` (stereo not drawn) [Example 290], for which the IC50 in assay [1] is above 10 µM; in assay [2], above 10 µM; in assay [3], 0.05 µM.
`CCCN(CC(=O)N1CCC(C(=O)NO)(S(=O)(=O)c2ccc(N3CCC(C(=O)N4CC(C)CC(C)C4)CC3)cc2)CC1)CC1CC1` (stereo not drawn) [Example 292]: the half-inhibitory concentration (IC50) in assay [1] was above 10 µM; in assay [2], above 10 µM; in assay [3] it was 0.1 µM.
For `CC1CC(C)CN(C(=O)C2CCN(c3ccc(S(=O)(=O)C4(C(=O)NO)CCN(C(=O)CNCC5CC5)CC4)cc3)CC2)C1` (stereo not drawn) [Example 293], the results for the concentration for half-maximal inhibition (IC50) in assay [1], in assay [2] and in assay [3] were above 10 µM, above 10 µM and 0.0631 µM, respectively.
On to `CC1CC(C)CN(C(=O)C2CCN(c3ccc(S(=O)(=O)C4(C(=O)NO)CCN(C(=O)CN(C)C)CC4)cc3)CC2)C1` (stereo not drawn) [Example 294], for which the 50% inhibitory concentration (IC50) in assay [1] is above 10 µM; in assay [2], above 1 µM; in assay [3] it was 0.0591 µM.
For `CCN(CC)CC(=O)N1CCC(C(=O)NO)(S(=O)(=O)c2ccc(N3CCC(C(=O)N4CC(C)CC(C)C4)CC3)cc2)CC1` (stereo not drawn) [Example 295] the same measures were above 10 µM, above 10 µM and 0.05 µM.
Turning to `CC1CC(C)CN(C(=O)C2CCN(c3ccc(S(=O)(=O)C4(C(=O)NO)CCN(C(=O)CN5CCCCC5)CC4)cc3)CC2)C1` (stereo not drawn) [Example 296], the IC50 is above 10 µM in assay [1], above 10 µM in assay [2] and 0.05 µM in assay [3].
For `CC1CC(C)CN(C(=O)C2CCN(c3ccc(S(=O)(=O)C4(C(=O)NO)CCN(C(=O)CN5CCCC5CO)CC4)cc3)CC2)C1` (stereo not drawn) [Example 297], the half-maximal inhibitory concentration (IC50) in assay [1] was above 10 µM; in assay [2] it was above 10 µM; in assay [3], 0.0349 µM.
In the case of `CC1CC(C)CN(C(=O)C2CCN(c3ccc(S(=O)(=O)C4(C(=O)NO)CCN(C(=O)CN5CCCC5)CC4)cc3)CC2)C1` (stereo not drawn) [Example 298], the IC50 was above 10 µM in assay [1], above 10 µM in assay [2] and 0.04 µM in assay [3].
Consider `CC1CC(C)CN(C(=O)C2CCN(c3ccc(S(=O)(=O)C4(C(=O)NO)CCN(C(=O)CN5CCN(CCOCCO)CC5)CC4)cc3)CC2)C1` (stereo not drawn) [Example 299], for which the IC50 was 9 µM in assay [1], above 10 µM in assay [2] and 0.0306 µM in assay [3].
For `CC1CC(C)CN(C(=O)C2CCN(c3ccc(S(=O)(=O)C4(C(=O)NO)CCN(C(=O)CN5CCC(C(N)=O)CC5)CC4)cc3)CC2)C1` (stereo not drawn) [Example 300] the same measures were above 10 µM, above 10 µM and 0.0373 µM.
For `CC1CC(C)CN(C(=O)C2CCN(c3ccc(S(=O)(=O)C4(C(=O)NO)CCN(C(=O)CNCCOCCO)CC4)cc3)CC2)C1` (stereo not drawn) [Example 301] the same measures were above 10 µM, above 10 µM and 0.09 µM.
The corresponding values for `CC1CC(C)CN(C(=O)C2CCN(c3ccc(S(=O)(=O)C4(C(=O)NO)CCN(C(=O)CN(CCCN(C)C)CCCN(C)C)CC4)cc3)CC2)C1` (stereo not drawn) [Example 302] are above 10 µM, above 10 µM and 0.175 µM.
As to `COCCN(CCOC)CC(=O)N1CCC(C(=O)NO)(S(=O)(=O)c2ccc(N3CCC(C(=O)N4CC(C)CC(C)C4)CC3)cc2)CC1` (stereo not drawn) [Example 303], the half-inhibitory concentration (IC50) was above 10 µM in assay [1], above 10 µM in assay [2] and 0.115 µM in assay [3].
In the case of `CC1CC(C)CN(C(=O)C2CCN(c3ccc(S(=O)(=O)C4(C(=O)NO)CCN(C(=O)CN5CCC(O)CC5)CC4)cc3)CC2)C1` (stereo not drawn) [Example 304], the IC50 in assay [1] was 7 µM; in assay [2], above 10 µM; in assay [3], 0.0306 µM.
For `CCOC(=O)CN1CCN(CC(=O)N2CCC(C(=O)NO)(S(=O)(=O)c3ccc(N4CCC(C(=O)N5CC(C)CC(C)C5)CC4)cc3)CC2)CC1` (stereo not drawn) [Example 305] the same measures were above 10 µM, above 10 µM and 0.0286 µM.
`CC1CC(C)CN(C(=O)C2CCN(c3ccc(S(=O)(=O)C4(C(=O)NO)CCN(C(=O)CN5CCN(CCN6CCOCC6)CC5)CC4)cc3)CC2)C1` (stereo not drawn) [Example 306]: the IC50 in assay [1] was above 10 µM; in assay [2], above 10 µM; in assay [3], 0.06 µM.

These data come from patent publication US6750228B1, “Aromatic sulfone hydroxamic acid metalloprotease inhibitor” (priority 1997, dated 2004).
